Source: patent US20250188110A1, “SPECIFIC SMALL MOLECULE INHIBITORS THAT BLOCK KMT9 METHYLTRANSFERASE ACTIVITY AND FUNCTION” (ALBERT-LUDWIGS-UNIVERSITÄT FREIBURG, priority 2021, published 2025)
pIC50, pKd: −log10 of the molar value. Read-outs that look alike come from different tables or passages of the source.

Experiments:
KMT9 [1] = biological target: T1, KMT9 (Homo sapiens, UniProt Q9Y5N5); test: KMT9 thermal shift assay (SyproOrange); type: binding; details: 500 µM compound
T1 sequence (Q9Y5N5 1-214): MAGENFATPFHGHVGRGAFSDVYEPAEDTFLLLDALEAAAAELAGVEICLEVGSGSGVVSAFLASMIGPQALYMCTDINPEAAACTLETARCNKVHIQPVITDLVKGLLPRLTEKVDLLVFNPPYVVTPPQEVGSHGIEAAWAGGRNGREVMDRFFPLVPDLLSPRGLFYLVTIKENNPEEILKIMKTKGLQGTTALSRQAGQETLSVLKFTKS
T1 sequence (Q9UI30 1-120 isoform Q9UI30-2 partner): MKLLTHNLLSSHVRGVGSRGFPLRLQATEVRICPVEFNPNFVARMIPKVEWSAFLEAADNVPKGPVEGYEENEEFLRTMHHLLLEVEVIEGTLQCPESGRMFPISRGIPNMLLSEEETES
Procedure: The assay was carried out in 96-well Hard-Shell PCR plates (Bio-Rad Laboratories Inc.). Assay buffer consisted of 50 mM BTP, 1 mM MgCl2 and 1 mM DTT at a pH of 8.5 (adjusted using 1 M HCl and 1 M NaOH). 20X inhibitor stock (in DMSO), 2X enzyme stock and 4X SyproOrange (SO) stock (both in assay buffer) were prepared. 1 μL of 20X compound, 4 μL of assay buffer, 10 μL of 2X KMT9 and 5 μL of 4X SO were pipetted. For the no-compound control, 20X inhibitor stock was replaced by DMSO. The final volume was 20 μL. The plate was spun down at 700 rpm for 1 min using a Hettich UNIVERSAL 320 centrifuge and incubated at 25° C., shaking at 600 rpm. After incubation, the plate was spun down for 1 min at 700 rpm and measurement was conducted using a CFX96 Touch Real-Time PCR Detection System (Bio-Rad Laboratories Inc.). The plate was equilibrated at 20° C. for 4 min and then heated stepwise at a rate of 1° C. per 15 s until 95° C. After every step, fluorescence was measured in FRET mode. Calculation of melting points was conducted by a Boltzman sigmoidal model using GraphPad Prism 7.0.
For the results of the thermal shift assay shown as “Thermal shift” in Table 1, “++++” represents a ΔTm of greater 20 K, “+++” represents a ΔTm of greater than 15 K and less than or equal to 20 K (15 K<ΔTm≤20 K); “++” represents a ΔTm of greater than 10 K and less than or equal to 15 K (10 K<ΔTm ≤ 15 K); “+” represents a ΔTm of equal to or less than 10 K (ΔTm≤10 K).

KMT9 [2] = biological target: T1, KMT9; test: KMT9 methyltransferase inhibition assay, 3H-SAM scintillation (entries 1-154); type: biochemical; details: entries 1-154: 3H-SAM assay, 25 nM KMT9, 5 μM ETF1
Procedure: The assay was carried out in 0.5 mL Eppendorf tubes in duplicates. Assay buffer consisted of 50 mM BTP, 1 mM MgCl2, 1 mM DTT and 0.01% Triton-X^100 at a pH of 8.5 (adjusted using 1 M HCl and 1 M NaOH). 20X inhibitor stock (in DMSO), 2X enzyme stock and 4X substrate mix (both in assay buffer) were prepared. The substrate mix consisted of Tritium-labelled S-adenosylmethionine (3H-SAM), S-adenosylmethionine (SAM) and eukaryotic peptide chain release factor subunit1 (Homo sapiens, residues 140-275)(ETF1). Final assay concentrations were set to 25 nM KMT9, 0.3 μM 3H-SAM, 0.7 µM SAM and 5 μM ETF1. […] 5 μL of 4x substrate mix was added to initiate the reaction. The final reaction volume was 20 μL. For the positive control, the compound of formula (I) was replaced by DMSO; for the negative control, the compound of formula (I) was replaced by DMSO and KMT9 was replaced by assay buffer. The reaction mix was incubated in an Eppendorf thermomixer comfort at 30° C. for 2 h, shaking at 300 rpm. The reaction was quenched using 5 μL 50% trichloroacetic acid (TCA) and incubated at 25° C. for 5 minutes. 22 μL of the mixture was transferred into 96-well MultiScreen@HTS FB filter plates (Merck KGaA, Darmstadt, Germany) and washed four times with 10% TCA and two times with 100% ethanol. The plate was dried overnight, the filters were transferred into individual 6 mL Pony Vials (Perkin Elmer Inc, Waltham, MA, USA) and incubated in 3 mL of Ultima Gold scintillation cocktail (Perkin Elmer Inc, Waltham, MA, USA) for 30 minutes. The scintillation signal was measured for 3x 1 min using TriCarb 2910 TR (Perkin Elmer) scintillation counter in 3H CPM mode (LL: 0, UL: 18.6). Inhibition was calculated using the following formula: […]
With xc: signal of compound, Xpos: mean signal of positive control, Xneg: mean signal of negative control. Data fitting was carried out by GraphPad 7.0 using nonlinear fit ([Inhibitor]vs. response-variable slope (four parameters)).
For the results of the methyltransferase inhibition assay shown as “Inhibition” in Table 1, “I” represents an IC50 less than 0.1 μM, “II” represents an IC50 equal or higher than 0.1 μM and less than 1 μM, “III” represents an IC50 equal or higher than 1 µM and less than 10 µM and “IV” represents an IC50 equal or higher than 10 µM

KMT9 [3] = biological target: T1, KMT9; test: Microscale thermophoresis (MST) KMT9 binding
Procedure: To determine the binding affinity of the compounds according to the present invention and KMT9, microscale thermophoresis (MST) analysis was performed with a NanoTemper Monolith NT.115 instrument (NanoTemper Technologies GmbH). KMT9 was labelled with a RED-Tris-NTA labelling kit (NanoTemper Technologies GmbH) based on the manufacturer's instructions. Buffer including 25 mM HEPES (pH 7.5), 100 mM NaCl, 1 mM DTT and 0.05% Tween was used for the reaction buffer. Varying concentrations of the tested compounds of formula (I) as indicated in Table 1 were titrated against His-tag labelled KMT9 proteins (20 nM). Samples were loaded into standard Capillaries (NanoTemper Technologies GmbH) and MST measurements were performed using 40% MST power and 100% LED power. For each set of binding experiments, MST measurement was carried out with Binding Affinity module in MO.Control program under Nano-RED Excitation. Datasets were processed with the MO.Affinity Analysis software (NanoTemper Technologies GmbH).
For the results of the microscale thermophoresis (MST) assay shown as “MST” in Table 1, “A” represents a Kd of equal to or less than 10 nM (Kd≤10 nM); “B” represents a Kd of greater than 10 nM and equal to or less than 100 nM (10 nM<Kd<100 nM); “C” represents a Kd of greater than 100 nM and equal to or less than 1000 nM (100 nM<Kd ≤ 1000 nM); “D” represents a Kd of greater than 1000 nM (1000 nM<Kd).

[4] = ΔTm, 2 μM KMT9, 5X SO, read-out: Thermal shift
[5] = microscale thermophoresis, His-tag labelled KMT9 (20 nM), read-out: MST
[6] = 2 μM KMT9, read-out: Thermal shift (ΔTm)

Row | SMILES | ΔTm at 500 µM (KMT9 [1]; [4]) | pIC50 (KMT9 [2]) | pKd (KMT9 [3]; [5]) | ΔTm at 500 µM (KMT9 [1]; [6]) | pKd (KMT9 [3]; His-tag labelled KMT9 20 nM, read-out: MST (Kd))
1 | CNc1ncnc2c1ccn2[C@@H]1C[C@H](CNCCC(=O)NCCc2ccccc2)[C@@H](O)[C@H]1O (racemic) [434 (306), 3-((((1R,2R,3S,4R)-2,3-dihydroxy-4-(4-(methylamino)-7H-pyrrolo[2,3-d]pyrimidin-7-yl)cyclopentyl)methyl)amino)-N-phenethylpropanamide and 3-((((1S,2R,3S,4R)-2,3-dihydroxy-4-(4-(methylamino)-7H-pyrrolo[2,3-d]pyrimidin-7-yl)cyclopentyl)methyl)amino)-N-phenethylpropanamide] | ≤ 10 °C | < 5.00 | < 6.00 | – | –
2 | CNc1ncnc2c1ccn2[C@@H]1C[C@H](CNCC2CNCCO2)[C@@H](O)[C@H]1O (mixture of isomers) [435 (307), (1R,2S,3R,5R)-3-(4-(methylamino)-7H-pyrrolo[2,3-d]pyrimidin-7-yl)-5-(((morpholin-2-ylmethyl)amino)methyl) cyclopentane-1,2-diol and (1R,2S,3R,5S)-3-(4-(methylamino)-7H-pyrrolo[2,3-d]pyrimidin-7-yl)-5-(((morpholin-2-ylmethyl)amino)methyl) cyclopentane-1,2-diol] | ≤ 10 °C | < 5.00 | < 6.00 | – | –
3 | CNc1ncnc2c1ccn2[C@@H]1C[C@H](CN2CCC[C@]23CCCNC3)[C@@H](O)[C@H]1O (single isomer, unassigned) [449 (321)] | ≤ 10 °C | < 5.00 | < 6.00 | – | –
4 | CNc1ncnc2c1ccn2[C@@H]1C[C@H](CN2CCC[C@@]23CCCNC3)[C@@H](O)[C@H]1O (single isomer, unassigned) [450 (322)] | ≤ 10 °C | < 5.00 | < 6.00 | – | –
5 | CNc1ncnc2c1ccn2[C@@H]1C[C@H](CNCCCNCCc2cccc(Oc3ccccc3)c2)[C@@H](O)[C@H]1O [287 (184)] | 10 to 15 °C | 5.00 to 6.00 | 6.00 to 7.00 | – | –
6 | CNc1ncnc2c1ccn2[C@@H]1C[C@H](CNCCCNCCc2cccc(N(C)c3ccccc3)c2)[C@@H](O)[C@H]1O [289 (186), (1S,2R,3R,5R)-3-(((3-((3-(methyl(phenyl)amino)phenethyl)amino)propyl)amino)methyl)-5-(4-(methylamino)-7H-pyrrolo[2,3-d]pyrimidin-7-yl) cyclopentane-1,2-diol] | 10 to 15 °C | < 5.00 | < 6.00 | – | –
7 | CNc1ncnc2c1ccn2[C@@H]1C[C@H](CNCCCNCCc2ccccc2)[C@@H](O)[C@H]1O [291 (188), (1R,2S,3R,5R)-3-(4-(methylamino)-7H-pyrrolo[2,3-a]pyrimidin-7-yl)-5-(((3-(phenethylamino)propyl)amino)methyl) cyclopentane-1,2-diol] | 10 to 15 °C | 5.00 to 6.00 | < 6.00 | – | –
8 | Nc1ncnc2c1c(-c1ccccc1)cn2[C@@H]1C[C@H](CNCCCNCCc2ccc(F)cc2)[C@@H](O)[C@H]1O [340 (244), (1R,2S,3R,5R)-3-(4-amino-5-phenyl-7H-pyrrolo[2,3-d]pyrimidin-7-yl)-5-(((3-((4-fluorophenethyl)amino)propyl)amino)methyl) cyclopentane-1,2-diol] | – | 6.00 to 7.00 | 7.00 to 8.00 | – | –
9 | Nc1ncnc2c1ncn2[C@@H]1O[C@H](C(=O)NCCCNCCc2ccc3ccccc3c2)[C@@H](O)[C@H]1O [688 (222), (2S,3S,4R,5R)-5-(6-amino-9H-purin-9-yl)-3,4-dihydroxy-N-(3-((2-(naphthalen-2-yl)ethyl)amino)propyl) tetrahydrofuran-2-carboxamide] | – | < 5.00 | – | – | –
10 | O[C@@H]1[C@H](O)[C@@H]([C@@H]2CCCNC2)C[C@H]1n1cc(-c2nccs2)c2cncnc21 [Compound 401, (1S,2R,3R,5R)-3-((S)-piperidin-3-yl)-5-(5-(thiazol-2-yl)-7//pyrrolo[2,3-a]pyrimidin-7-yl) cyclopentane-1,2-diol] | – | – | – | ≤ 10 °C | –
11 | O[C@@H]1[C@H](O)[C@@H]([C@H]2CCCNC2)C[C@H]1n1cc(-c2nccs2)c2cncnc21 [Compound 402, (1S,2R,3R,5R)-3-((R)-piperidin-3-yl)-5-(5-(thiazol-2-yl)-7H-pyrrolo[2,3-a]pyrimidin-7-yl) cyclopentane-1,2-diol] | – | – | – | ≤ 10 °C | –
12 | O[C@@H]1[C@H](O)[C@@H]([C@H]2CCCNC2)C[C@H]1n1ccc2c(C(F)F)ncnc21 [Compound 403, (1R,2S,3R,5R)-3-(4-(difluoromethyl)-7H-pyrrolo[2,3-d]pyrimidin-7-yl)-5-((R)-piperidin-3-yl) cyclopentane-1,2-diol] | – | – | – | ≤ 10 °C | –
13 | Nc1nc(Cl)nc2c1c(-c1ccn(S(=O)(=O)c3ccccc3)n1)cn2[C@@H]1C[C@H](C2CCN(CC3CC3)CC2)[C@@H](O)[C@H]1O [Compound 520, (1R,2S,3R,5R)-3-{4-Amino-5-[1-(benzenesulfonyl)pyrazol-3-yl]-2-chloropyrrolo[2,3-d]pyrimidin-7-yl}-5-[1-(cyclopropylmethyl)piperidin-4-yl]cyclopentane-1,2-diol] | – | – | – | > 20 °C | ≥ 8.00
14 | CNc1ncnc2c1ccn2[C@@H]1C[C@H]([C@@H]2C[C@@H]2CCCNCCc2ccccc2)[C@@H](O)[C@H]1O [Compound 683, (1R,2S,3R,5R)-3-(4-(methylamino)-7H-pyrrolo[2,3-d]pyrimidin-7-yl)-5-((1R,2S)-2-(3-(phenethylamino)propyl)cyclopropyl)cyclopentane-1,2-diol] | ≤ 10 °C | – | < 6.00 | – | –
